We go through two compounds from patent US11117947B2, “Double-acylated GLP-1 derivatives” (Novo Nordisk A/S, priority 2011, dated 2021).

A short description of this data set: Estimate of oral bioavailability: gut injection in rat (caprate), exposure in plasma. Type of data set: in vivo. As to conditions: injection in jejunum, 1000 uM in 55 mg/ml sodium caprate, plasma concentration (pM) at 30 min divided by dosing solution concentration (μM), mean n=4. How it is done: The GLP-1 derivatives were tested in a concentration of 1000 uM in a solution of 55 mg/ml sodium caprate.
Male Sprague Dawley rats with a body weight upon arrival of approximately 240 g were obtained from Taconic (Denmark) and assigned to the different treatments by simple randomisation, 4 rats per group.
The GLP-1 derivatives were administered in the jejunum either in the proximal part (10 cm distal for the duodenum) or in the mid-intestine (50 cm proximal for the cecum). A PE50-catheter, 10 cm long was inserted into the jejunum, forwarded at least 1.5 cm into the jejunum, and secured before dosing by ligature around the gut and the catheter with 3/0 suture distal to tip to prevent leak or catheter displacement. Catheter was placed without syringe and needle and 2 ml saline was administered into abdomen before closing the incision with wound clips.
100 μl of the respective GLP-1 derivative was injected into the jejunal lumen through the catheter with a 1 ml syringe. Subsequently, 200 μl of air was pushed into the jejunal lumen with another syringe to “flush” the catheter. This syringe was leaved connected to the catheter to prevent flow back into the catheter.
Blood samples (200 ul) were collected at desired intervals (usually at times 0, 10, 30, 60, 120 and 240 min) into EDTA tubes from the tail vein and centrifuged 5 minutes, 10000G, at 4° C. within 20 minutes. […] 12, p. 240-247. The donor beads were coated with streptavidin, while acceptor beads were conjugated with a monoclonal antibody recognising a mid-/C-terminal epitope of the peptide. Another monoclonal antibody, specific for the N-terminus, was biotinylated. The three reactants were combined with the analyte and formed a two-sited immuno-complex. Illumination of the complex released singlet oxygen atoms from the donor beads, which were channeled into the acceptor beads and triggered chemiluminescence which was measured in an Envision plate reader. The amount of light was proportional to the concentration of the compound.
After the blood sampling the rats were sacrificed under anaesthesia and the abdomen was opened to verify correct catheter placement.
The mean (n=4) plasma concentrations (pmol/l) were determined as a function of time.

Numbered stars: 1 amine (or outer) side, 2 acyl side, 3 side chain; on linkers, the order of the positions; unused ones are H or OH. Side chains are listed from the residue outwards. Peptide text beside a SMILES is read from it. * marks the point of attachment. Decanoyl(10-(4-HOOC-PhO)) = O=C(O)c1ccc(OCCCCCCCCCC(=O)*)cc1; γGlu = O=C(O)[C@H](CCC(=O)[*:2])N[*:1]; AEEA = NCCOCCOCC(=O)O

Turning to `CC[C@H](C)[C@H](NC(=O)[C@H](Cc1ccccc1)NC(=O)[C@H](CCCCNC(=O)COCCOCCNC(=O)COCCOCCNC(=O)CC[C@H](NC(=O)CCCCCCCCCOc1ccc(C(=O)O)cc1)C(=O)O)NC(=O)[C@H](CCCNC(=N)N)NC(=O)[C@@H](NC(=O)[C@H](C)NC(=O)[C@H](CCC(N)=O)NC(=O)[C@H](CCC(=O)O)NC(=O)[C@H](CCC(=O)O)NC(=O)[C@H](CC(C)C)NC(=O)[C@H](Cc1ccc(O)cc1)NC(=O)[C@H](CO)NC(=O)[C@H](CO)NC(=O)[C@@H](NC(=O)[C@H](CC(=O)O)NC(=O)[C@H](CO)NC(=O)[C@@H](NC(=O)[C@H](Cc1ccccc1)NC(=O)[C@@H](NC(=O)CNC(=O)[C@H](CCC(=O)O)NC(=O)[C@H](C)NC(=O)[C@@H](N)Cc1c[nH]cn1)[C@@H](C)O)[C@@H](C)O)C(C)C)C(C)C)C(=O)N[C@@H](C)C(=O)N[C@@H](Cc1c[nH]c2ccccc12)C(=O)N[C@@H](CC(C)C)C(=O)N[C@H](C(=O)N[C@@H](CCCNC(=N)N)C(=O)NCC(=O)N[C@@H](CCCNC(=N)N)C(=O)N[C@@H](CCCCNC(=O)COCCOCCNC(=O)COCCOCCNC(=O)CC[C@H](NC(=O)CCCCCCCCCOc1ccc(C(=O)O)cc1)C(=O)O)C(=O)O)C(C)C` [Example 4, N^ε27-[2-[2-[2-[[2-[2-[2-[[(4S)-4-carboxy-4-[10-(4-carboxyphenoxy)decanoylamino]butanoyl]amino]ethoxy]ethoxy]acetyl]amino]ethoxy]ethoxy]acetyl], N^ε37-[2-[2-[2-[[2-[2-[2-[[(4S)-4-carboxy-4-[10-(4-carboxyphenoxy)decanoylamino]butanoyl]amino]ethoxy]ethoxy]acetyl]amino]ethoxy]ethoxy]acetyl]-[Glu^22,Val^25,Arg^26,Lys^27,Arg^34,Lys^37]-GLP-1-(7-37)-peptide] (H-HAEGTFTSDVSSYLEEQAVRK([AEEA-AEEA-γGlu-Decanoyl(10-(4-HOOC-PhO))])FIAWLVRGRK([AEEA-AEEA-γGlu-Decanoyl(10-(4-HOOC-PhO))])-OH; N-terminus and C-terminus assumed), the “Dose-corrected exposure at 30 min” value was 39. In the case of `CC[C@H](C)[C@H](NC(=O)[C@H](Cc1ccccc1)NC(=O)[C@H](CCCCNC(=O)COCCOCCNC(=O)COCCOCCNC(=O)CC[C@H](NC(=O)CCCCCCCCCOc1ccc(C(=O)O)cc1)C(=O)O)NC(=O)[C@H](CCCNC(=N)N)NC(=O)[C@H](C)NC(=O)[C@H](C)NC(=O)[C@H](CCC(N)=O)NC(=O)CNC(=O)[C@H](CCC(=O)O)NC(=O)[C@H](CC(C)C)NC(=O)[C@H](Cc1ccc(O)cc1)NC(=O)[C@H](CO)NC(=O)[C@H](CO)NC(=O)[C@@H](NC(=O)[C@H](CC(=O)O)NC(=O)[C@H](CO)NC(=O)[C@@H](NC(=O)[C@H](Cc1ccccc1)NC(=O)[C@@H](NC(=O)CNC(=O)[C@H](CCC(=O)O)NC(=O)[C@H](C)NC(=O)[C@@H](N)Cc1c[nH]cn1)[C@@H](C)O)[C@@H](C)O)C(C)C)C(=O)N[C@@H](CCC(=O)O)C(=O)N[C@@H](Cc1c[nH]c2ccccc12)C(=O)N[C@@H](CC(C)C)C(=O)N[C@H](C(=O)N[C@@H](CCCNC(=N)N)C(=O)NCC(=O)N[C@@H](CCCCNC(=O)COCCOCCNC(=O)COCCOCCNC(=O)CC[C@H](NC(=O)CCCCCCCCCOc1ccc(C(=O)O)cc1)C(=O)O)C(=O)NCC(=O)N[C@@H](CCC(=O)O)C(=O)O)C(C)C` [Example 6, N^ε27-[2-[2-[2-[[2-[2-[2-[[(4S)-4-carboxy-4-[10-(4-carboxyphenoxy)decanoylamino]butanoyl]amino]ethoxy]ethoxy]acetyl]amino]ethoxy]ethoxy]acetyl], N^ε36-[2-[2-[2-[[2-[2-[2-[[(4S)-4-carboxy-4-[10-(4-carboxyphenoxy)decanoylamino]butanoyl]amino]ethoxy]ethoxy]acetyl]amino]ethoxy]ethoxy]acetyl]-[Arg^26,Lys^27,Glu^30,Arg^34,Lys^36]-GLP-1-(7-37)-peptidyl-Glu] (H-HAEGTFTSDVSSYLEGQAARK([AEEA-AEEA-γGlu-Decanoyl(10-(4-HOOC-PhO))])FIEWLVRGK([AEEA-AEEA-γGlu-Decanoyl(10-(4-HOOC-PhO))])GE-OH; N-terminus and C-terminus assumed), the “Dose-corrected exposure at 30 min” value was 93.
